In PubChem BioAssay (NCI):
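Interpolation was linear, between the two tested concentrations surrounding the appropriate level; five concentrations were tested over 48 hours in 96-well plates. GI50 is the concentration that inhibits growth by half. TGI: total growth inhibition.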

How the values were obtained:
Assay in all cases: NCI anticancer screen, dose series, 48 h
[1] = tested on: OVCAR-3 ovarian
[2] = tested on: 786-0 renal
[3] = tested on: HCC-2998 colon
[4] = tested on: SK-OV-3 ovarian
[5] = tested on: SF-539 CNS
[6] = tested on: MDA-MB-435
[7] = tested on: CCRF-CEM leukemia
[8] = tested on: MDA-MB-231 breast
[9] = tested on: TK-10 renal
[10] = tested on: PC-3 prostate

COc1cccc(NC(=O)c2sc3nc(C)c(C(O)c4ccccc4)cc3c2N)c1 (stereo not given)
GI50 [1]: 0.255 µM | TGI [1]: 2.93 µM | GI50 [2]: 0.665 µM | TGI [2]: 26.6 µM | GI50 [3]: 0.359 µM | TGI [3]: 4.05 µM | GI50 [4]: 0.658 µM | TGI [4]: 23.8 µM | GI50 [5]: 0.185 µM | TGI [5]: 0.598 µM | GI50 [6]: 0.0251 µM | TGI [6]: 0.0751 µM | GI50 [7]: 0.219 µM | TGI [7]: > 79.7 µM | GI50 [8]: 0.345 µM | TGI [8]: 33.5 µM | GI50 [9]: 2.03 µM | TGI [9]: 65.1 µM | GI50 [10]: 0.49 µM | TGI [10]: 22.3 µM

Cn1c2c(c3ccc([N+](=O)[O-])cc3c1=O)C(=O)c1ccccc1-2
GI50 [1]: 52.6 µM | TGI [1]: > 100 µM | GI50 [2]: > 100 µM | TGI [2]: > 100 µM | GI50 [3]: > 100 µM | TGI [3]: > 100 µM | GI50 [4]: > 100 µM | TGI [4]: > 100 µM | GI50 [5]: > 100 µM | TGI [5]: > 100 µM | GI50 [6]: 47.4 µM | TGI [6]: > 100 µM | GI50 [7]: > 100 µM | TGI [7]: > 100 µM | GI50 [8]: > 100 µM | TGI [8]: > 100 µM | GI50 [9]: > 100 µM | TGI [9]: > 100 µM | GI50 [10]: > 100 µM | TGI [10]: > 100 µM

CNC(=O)c1ccccc1Nc1nc(Nc2cc(OC)c(OC)c(OC)c2)ncc1Br
GI50 [1]: 0.0695 µM | TGI [1]: 25 µM | GI50 [2]: 0.0234 µM | TGI [2]: 1.85 µM | GI50 [3]: 0.027 µM | TGI [3]: 1.54 µM | GI50 [4]: 0.0309 µM | TGI [4]: 5.13 µM | GI50 [5]: 0.0313 µM | TGI [5]: 0.263 µM | GI50 [6]: 0.0546 µM | TGI [6]: 2.11 µM | GI50 [7]: 0.0523 µM | TGI [7]: > 19.9 µM | GI50 [8]: 0.033 µM | TGI [8]: 0.263 µM | GI50 [9]: 0.0186 µM | TGI [9]: 0.648 µM | GI50 [10]: 0.131 µM | TGI [10]: 10.9 µM

NCCCCCCCn1c2c(c3ccccc3c1=O)C(=O)c1ccccc1-2
GI50 [1]: 1.86 µM | TGI [1]: 4.1 µM | GI50 [2]: 1.38 µM | TGI [2]: 2.75 µM | GI50 [3]: 2.69 µM | TGI [3]: 7.56 µM | GI50 [4]: 2.96 µM | TGI [4]: 9.24 µM | GI50 [5]: 1.66 µM | TGI [5]: 3.09 µM | GI50 [6]: 1.98 µM | TGI [6]: 4.06 µM | GI50 [7]: 0.648 µM | TGI [7]: 2.19 µM | GI50 [8]: 1.85 µM | TGI [8]: 3.79 µM | GI50 [9]: 1.67 µM | TGI [9]: 3.29 µM | GI50 [10]: 1.32 µM | TGI [10]: 2.72 µM

C=C1CCC2C3(C)COC(c4ccccc4)OC3CCC2(C)C1/C=C/C1=CCOC1=O (stereo not given)
GI50 [1]: 2.79 µM | TGI [1]: 8.84 µM | GI50 [2]: 13 µM | TGI [2]: 30 µM | GI50 [3]: 7.75 µM | TGI [3]: 19.4 µM | GI50 [4]: 11.5 µM | TGI [4]: > 100 µM | GI50 [5]: 8.71 µM | TGI [5]: 21.2 µM | GI50 [6]: 2.84 µM | TGI [6]: 13.8 µM | GI50 [7]: 1.89 µM | TGI [7]: 5.65 µM | GI50 [8]: 12.5 µM | TGI [8]: 43 µM | GI50 [9]: 12.3 µM | TGI [9]: 34 µM | GI50 [10]: 4.75 µM | TGI [10]: 51.3 µM

C=CC(=O)Nc1cc(C)ccc1Nc1nc(Nc2cc(OC)ncc2C)ncc1C(F)(F)F
GI50 [1]: 1.4 µM | TGI [1]: > 100 µM | GI50 [2]: 0.692 µM | TGI [2]: > 100 µM | GI50 [3]: 0.261 µM | TGI [3]: 4.34 µM | GI50 [4]: 4.09 µM | TGI [4]: > 100 µM | GI50 [5]: 0.344 µM | TGI [5]: 1.63 µM | GI50 [6]: 0.308 µM | TGI [6]: 3.85 µM | GI50 [7]: 3.73 µM | TGI [7]: > 100 µM | GI50 [8]: 0.336 µM | TGI [8]: 1.87 µM | GI50 [9]: 0.416 µM | TGI [9]: > 100 µM | GI50 [10]: 2.18 µM | TGI [10]: > 100 µM

Cn1cnc([N+](=O)[O-])c1Sc1nc(N)nc2c1ncn2C1CC(O)C(CO)O1 (stereo not given)
TGI [1]: > 36.4 µM | TGI [2]: > 100 µM | TGI [3]: > 100 µM | TGI [4]: > 79.1 µM | TGI [5]: > 100 µM | TGI [6]: > 58.8 µM | TGI [7]: > 100 µM | TGI [8]: > 100 µM | TGI [9]: > 100 µM | TGI [10]: > 100 µM

CC(=O)OC(C)(C)/C(C)=C/C(=O)O[C@H]1C(=O)O[C@@H]2C[C@H]3[C@H](C)C(=O)C(O[C@@H]4O[C@H](CO)[C@@H](O)[C@H](O)[C@H]4O)=C[C@]3(C)[C@H]3[C@@H](O)[C@H](O)[C@@]4(C(=O)O)OC[C@]32[C@@H]14
GI50 [1]: 25.9 µM | TGI [1]: > 100 µM | GI50 [2]: > 100 µM | TGI [2]: > 100 µM | GI50 [3]: 36.5 µM | TGI [3]: > 100 µM | GI50 [4]: > 100 µM | TGI [4]: > 100 µM | GI50 [5]: 55.9 µM | TGI [5]: > 100 µM | GI50 [6]: > 100 µM | TGI [6]: > 100 µM | GI50 [7]: 43.8 µM | TGI [7]: > 100 µM | GI50 [8]: > 100 µM | TGI [8]: > 100 µM | GI50 [9]: > 100 µM | TGI [9]: > 100 µM | GI50 [10]: > 100 µM | TGI [10]: > 100 µM

c1ccc(CN2COc3c(ccc4c3OCN(Cc3ccccc3)C4)C2)cc1
GI50 [1]: 0.64 µM | TGI [1]: > 89.8 µM | GI50 [2]: 0.809 µM | TGI [2]: > 100 µM | GI50 [3]: 1.21 µM | TGI [3]: > 100 µM | GI50 [4]: 0.639 µM | TGI [4]: > 100 µM | GI50 [5]: 1.45 µM | TGI [5]: 6.41 µM | GI50 [6]: 1.72 µM | TGI [6]: > 100 µM | GI50 [7]: 0.451 µM | TGI [7]: > 100 µM | GI50 [8]: 0.564 µM | TGI [8]: > 100 µM | GI50 [9]: 0.464 µM | TGI [9]: > 100 µM | GI50 [10]: 0.579 µM | TGI [10]: > 100 µM

Cc1csc(/C=C/C(=O)c2nnn(-c3ccnc4c(C(F)(F)F)cccc34)c2C)c1
GI50 [1]: > 100 µM | TGI [1]: > 100 µM | GI50 [2]: > 100 µM | TGI [2]: > 100 µM | GI50 [3]: 43.7 µM | TGI [3]: > 100 µM | GI50 [4]: 89.1 µM | TGI [4]: > 100 µM | GI50 [5]: > 100 µM | TGI [5]: > 100 µM | GI50 [6]: 56.9 µM | TGI [6]: > 100 µM | GI50 [7]: 21.9 µM | TGI [7]: > 100 µM | GI50 [8]: 29.2 µM | TGI [8]: > 100 µM | GI50 [9]: 87.1 µM | TGI [9]: > 100 µM | GI50 [10]: 29.7 µM | TGI [10]: > 100 µM

CCOC(=O)c1cc2c(cc1Cl)SC(N(c1ccc(OC)cc1)S(=O)(=O)c1ccc(Cl)cc1)=NS2(=O)=O
GI50 [1]: 22.1 µM | TGI [1]: 54.4 µM | GI50 [2]: 62.2 µM | TGI [2]: > 100 µM | GI50 [3]: > 100 µM | TGI [3]: > 100 µM | GI50 [4]: > 100 µM | TGI [4]: > 100 µM | GI50 [5]: 15.1 µM | TGI [5]: 31.2 µM | GI50 [6]: 22.1 µM | TGI [6]: 57 µM | GI50 [7]: 0.666 µM | TGI [7]: > 100 µM | GI50 [8]: 47 µM | TGI [8]: > 100 µM | GI50 [9]: 38.4 µM | TGI [9]: > 100 µM | GI50 [10]: 20 µM | TGI [10]: 58.6 µM

CC1CCCC(C(O)CC2CC(=O)NC(=O)C2)C1O (stereo not given)
TGI [1]: > 100 µM | TGI [2]: > 100 µM | TGI [3]: > 100 µM | TGI [4]: > 100 µM | TGI [5]: > 100 µM | TGI [6]: > 100 µM | TGI [7]: > 100 µM | TGI [8]: > 100 µM | TGI [9]: > 100 µM | TGI [10]: > 100 µM

O=C(COc1cc(O)c2c(=O)cc(-c3ccccc3)oc2c1)Nc1ccccc1C(F)(F)F
GI50 [1]: 2.12 µM | TGI [1]: 4.12 µM | GI50 [2]: 2.01 µM | TGI [2]: 4.15 µM | GI50 [3]: > 100 µM | TGI [3]: > 100 µM | GI50 [4]: 14.9 µM | TGI [4]: 50.7 µM | GI50 [5]: 2.21 µM | TGI [5]: 5.5 µM | GI50 [6]: 6.03 µM | TGI [6]: > 100 µM | GI50 [7]: 19.6 µM | TGI [7]: 64.1 µM | GI50 [8]: 2.04 µM | TGI [8]: 5.26 µM | GI50 [9]: 1.88 µM | TGI [9]: 3.71 µM | GI50 [10]: 5.75 µM | TGI [10]: > 100 µM
